Measured values published in US11535607B2, “Isoindolines as HDAC inhibitors” (Valo Health, Inc., priority 2018, dated 2022).
Where a name gives a salt, the structure may show the parent alone.

Target: full-length human HDAC11 (Homo sapiens (Human), UniProt Q96DB2)
Assay: Probe binding HDAC11 time resolved fluorescence (TRF) assay
Conditions: Table 2, read-out: HDAC11 IC50 Range
Protocol: The probe binding HDAC11 assay was performed using a time resolved fluorescence (TRF) assay format. Recombinant N-terminal GST tag full-length human HD AC 11 was expressed and purified from baculovirus in Sf9 insect cells (SignalChem, #H93-30G-1000). […] 4 μL of 2× probe and 2× anti-GST Terbium (Cisbio, #61GSTXLB) was added to assay plates followed by 4 μL of 2×HDAC11.
Data from HD AC 11 Assays were reported as percent inhibition (inh) compared with control wells based on the following equation: % inh=1−((FLU−AveLow)/(AveHigh−AveLow)) where FLU=measured time resolved fluorescence. AveLow=average time resolved fluorescence of no enzyme control (n=32). AveHigh=average time resolved fluorescence of DMSO control (n=32). IC50 values were determined by curve fitting of the standard 4 parameter logistic fitting algorithm included in the Activity Base software package: IDBS XE Designer Model205. Data is fitted using the Levenburg Marquardt algorithm.

Sequence of full-length human HDAC11 (Q96DB2 whole entry): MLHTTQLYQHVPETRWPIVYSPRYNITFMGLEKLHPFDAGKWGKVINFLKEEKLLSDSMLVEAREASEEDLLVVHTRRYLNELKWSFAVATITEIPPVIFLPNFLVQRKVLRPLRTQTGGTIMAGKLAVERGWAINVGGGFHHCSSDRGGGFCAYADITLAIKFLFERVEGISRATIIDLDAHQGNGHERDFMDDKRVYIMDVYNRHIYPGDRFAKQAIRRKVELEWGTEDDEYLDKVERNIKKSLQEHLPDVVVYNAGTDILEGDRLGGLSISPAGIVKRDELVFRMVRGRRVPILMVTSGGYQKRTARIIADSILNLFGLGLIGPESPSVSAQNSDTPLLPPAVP

Structure (SMILES) | IC50
CC1(C)c2cccc(C(=O)NO)c2CN1c1nc2c(o1)CC(C(F)(F)F)CC2 (stereo not drawn) [Compound 19-2, N-hydroxy-1,1-dimethyl-2-(6-(trifluoromethyl)-4,5,6,7-tetrahydrobenzo[d]oxazol-2-yl)isoindoline-4-carboxamide] | < 0.5 µM
O=C(NO)c1cccc2c1CN(c1nc3cc(C(F)(F)F)c(-c4ccccc4)cc3[nH]1)C2 [Compound 34-1, N-hydroxy-2-(5-phenyl-6-(trifluoromethyl)-1H-benzo[d]imidazol-2-yl)isoindoline-4-carboxamide] | < 0.5 µM
O=C(NO)c1cccc2c1CN(c1nc3c([nH]1)CNCC3)C2 [Compound 13-1, N-hydroxy-2-(4,5,6,7-tetrahydro-3H-imidazo[4,5-c]pyridin-2-yl)isoindoline-4-carboxamide] | > 1 µM
O=C(NO)c1cccc2c1CN(c1ccc3c(c1)OCCN3)C2 [Compound 9-1, 2-(3,4-dihydro-2H-benzo[b][1,4]oxazin-7-yl)-N-hydroxyisoindoline-4-carboxamide hydrochloride] | 0.5 to 1 µM
COc1ccc(CN2Cc3c(C(=O)NO)cccc3C2(C)C)cc1 [Compound 32-1, N-hydroxy-2-(4-methoxybenzyl)-1,1-dimethylisoindoline-4-carboxamide hydrochloride] | > 1 µM
CC1(C)c2cccc(C(=O)NO)c2CN1C(=O)Nc1ccc(C(F)(F)F)cc1 [Compound 29-1, N4-hydroxy-1,1-dimethyl-N2-(4-(trifluoromethyl)phenyl)isoindoline-2,4-dicarboxamide] | < 0.5 µM
O=C(NO)c1cccc2c1CN(c1nc3cccnc3o1)C2 [Compound 6-2, N-hydroxy-2-(oxazolo[5,4-b]pyridin-2-yl)isoindoline-4-carboxamide] | > 1 µM
O=C(NO)c1cccc2cc(-c3ccc(C(F)(F)F)cc3)[nH]c12 [Compound 37-1, N-hydroxy-2-(4-(trifluoromethyl)phenyl)-1H-indole-7-carboxamide] | 0.5 to 1 µM
CC1(C)c2cccc(C(=O)NO)c2CN1C(=O)Nc1ccc(C(F)(F)F)cn1 [Compound 30-2, N4-hydroxy-1,1-dimethyl-N2-(5-(trifluoromethyl)pyridin-2-yl)isoindoline-2,4-dicarboxamide] | > 1 µM
CC1(C)c2cccc(C(=O)NO)c2CN1c1nc2ccccc2s1 [Compound 22-1, 2-(benzo[d]thiazol-2-yl)-N-hydroxy-1,1-dimethylisoindoline-4-carboxamide] | < 0.5 µM
O=C(NO)c1cccc2c1CC(c1ccc(C(F)(F)F)cc1)N2 (stereo not drawn) [Compound 38-2, N-hydroxy-2-(4-(trifluoromethyl)phenyl)indoline-4-carboxamide] | > 1 µM
O=C(NO)c1cccc2c1CN(c1nc3ncccc3o1)C2 [Compound 5-1, N-hydroxy-2-(oxazolo[4,5-b]pyridin-2-yl)isoindoline-4-carboxamide hydrochloride] | < 0.5 µM
CC1(C)CCc2nc(N3Cc4cccc(C(=O)NO)c4C3)[nH]c2C1 [Compound 1-5, 2-(5,5-dimethyl-4,5,6,7-tetrahydro-1H-benzo[d]imidazol-2-yl)-N-hydroxyisoindoline-4-carboxamide hydrochloride] | 0.5 to 1 µM
CC1(C)c2cccc(C(=O)NO)c2CN1c1ccc2ccccc2n1 [Compound 22-5, N-hydroxy-1,1-dimethyl-2-(quinolin-2-yl)isoindoline-4-carboxamide] | < 0.5 µM
CC1(C)c2cccc(C(=O)NO)c2CN1C(=O)Nc1cc(C(F)(F)F)ccn1 [Compound 30-5, N4-hydroxy-1,1-dimethyl-N2-(4-(trifluoromethyl)pyridin-2-yl)isoindoline-2,4-dicarboxamide] | < 0.5 µM
CC1(C)c2cccc(C(=O)NO)c2CN1C(=O)Nc1cncc(C(F)(F)F)c1 [Compound 30-4, N4-hydroxy-1,1-dimethyl-N2-(5-(trifluoromethyl)pyridin-3-yl)isoindoline-2,4-dicarboxamide] | > 1 µM
CC1(C)c2cccc(C(=O)NO)c2CN1c1nc2ccccc2o1 [Compound 25-1, 2-(benzo[d]oxazol-2-yl)-N-hydroxy-1,1-dimethylisoindoline-4-carboxamide] | < 0.5 µM
CC1(C)c2cccc(C(=O)NO)c2N[C@H]1c1ccc(C(F)(F)F)cn1 [Compound 40-1, (R)—N-hydroxy-3,3-dimethyl-2-(5-(trifluoromethyl)pyridin-2-yl)indoline-7-carboxamide] | > 1 µM
CC1(C)c2cccc(C(=O)NO)c2CN1c1ccc2cc(C(F)(F)F)ccc2n1 [Compound 23-1, N-hydroxy-1,1-dimethyl-2-(6-(trifluoromethyl)quinolin-2-yl)isoindoline-4-carboxamide] | < 0.5 µM
O=C(NO)c1cccc2c1CN(c1nc3cc(C(F)(F)F)cc(-c4ccccc4)c3[nH]1)C2 [Compound 35-1, N-hydroxy-2-(7-phenyl-5-(trifluoromethyl)-1H-benzo[d]imidazol-2-yl)isoindoline-4-carboxamide] | 0.5 to 1 µM

Structure (SMILES) | IC50
CC1(C)c2cccc(C(=O)NO)c2CN1c1nc2ncccc2s1 [Compound 20-1, N-hydroxy-1,1-dimethyl-2-(thiazolo[4,5-b]pyridin-2-yl)isoindoline-4-carboxamide] | > 1 µM
CC1(C)c2cccc(C(=O)NO)c2N[C@H]1c1ccc(C(F)(F)F)cc1 [Compound 40-5, (S)-N-hydroxy-3,3-dimethyl-2-(4-(trifluoromethyl)phenyl)indoline-7-carboxamide] | 0.5 to 1 µM
CC1(C)c2cccc(C(=O)NO)c2CN1C(=O)Nc1cc2c(cn1)CCCC2 [Compound 31-1, N4-hydroxy-1,1-dimethyl-N2-(5,6,7,8-tetrahydroisoquinolin-3-yl)isoindoline-2,4-dicarboxamide] | 0.5 to 1 µM
O=C(NO)c1cccc2c1CN(c1nc3c([nH]1)CC(C(F)(F)F)CC3)C2 (stereo not drawn) [Compound 1-1, N-hydroxy-2-(5-(trifluoromethyl)-4,5,6,7-tetrahydro-1H-benzo[d]imidazol-2-yl)isoindoline-4-carboxamide] | < 0.5 µM
O=C(NO)c1cccc2c1CN(C1=NC(O)(C(F)(F)F)C(c3ccccc3)=N1)C2 (stereo not drawn) [Compound 44-1, N-hydroxy-2-(4-hydroxy-5-phenyl-4-(trifluoromethyl)-4H-imidazol-2-yl)isoindoline-4-carboxamide] | > 1 µM
O=C(NO)c1cccc2c1CN(c1ncc3ccccc3n1)C2 [Compound 7-1, N-hydroxy-2-(quinazolin-2-yl)isoindoline-4-carboxamide] | > 1 µM
O=C(NO)c1cccc2[nH]c(-c3ccc(C(F)(F)F)cc3)cc12 [Compound 37-2, N-hydroxy-2-(4-(trifluoromethyl)phenyl)-1H-indole-4-carboxamide] | 0.5 to 1 µM
CC1(C)c2ccnc(C(=O)NO)c2CN1c1ccc(C(F)(F)F)cn1 [Compound 33-1, N-hydroxy-1,1-dimethyl-2-(5-(trifluoromethyl)pyridin-2-yl)-2,3-dihydro-1H-pyrrolo [3,4-c]pyridine-4-carboxamide] | 0.5 to 1 µM
CCCc1cnc(N2Cc3cccc(C(=O)NO)c3C2)[nH]1 [Compound 1-3, N-hydroxy-2-(5-propyl-1H-imidazol-2-yl)isoindoline-4-carboxamide] | > 1 µM
O=C(NO)c1cccc2c1CN(c1nc3ccncc3[nH]1)C2 [Compound 3-1, N-hydroxy-2-(3H-imidazo[4,5-c]pyridin-2-yl)isoindoline-4-carboxamide] | > 1 µM
CC1(C)c2cccc(C(=O)NO)c2CN1c1ccc(C(F)(F)F)c(C#N)n1 [Compound 27-1, 2-(6-cyano-5-(trifluoromethyl)pyridin-2-yl)-N-hydroxy-1,1-dimethylisoindoline-4-carboxamide] | < 0.5 µM
COc1ccc(CN2Cc3cccc(C(=O)NO)c3C2)cc1 [Compound 41-2, N-hydroxy-2-(4-methoxybenzyl)isoindoline-4-carboxamide] | > 1 µM
CC1(C)c2cccc(C(=O)NO)c2N[C@@H]1c1cnc(C(F)(F)F)cn1 [Compound 40-4, (S)-N-hydroxy-3,3-dimethyl-2-(5-(trifluoromethyl)pyrazin-2-yl)indoline-7-carboxamide] | > 1 µM
CC1(C)c2cccc(C(=O)NO)c2CN1c1nc2ncc(C(F)(F)F)cc2o1 [Compound 26-2, N-hydroxy-1,1-dimethyl-2-(6-(trifluoromethyl)oxazolo[4,5-b]pyridin-2-yl)isoindoline-4-carboxamide] | < 0.5 µM
O=C(NO)c1cccc2[nH]c(-c3cnc(C(F)(F)F)cn3)cc12 [Compound 37-4, N-hydroxy-2-(5-(trifluoromethyl)pyrazin-2-yl)-1H-indole-4-carboxamide] | < 0.5 µM
O=C(NO)c1cccc2c1CN(c1nc3ccccc3o1)C2=O [Compound 36-1, 2-(benzo[d]oxazol-2-yl)-N-hydroxy-1-oxoisoindoline-4-carboxamide] | > 1 µM
O=C(NO)c1cccc2c1CN(c1nc3cc(C(F)(F)F)ccc3o1)C2=O [Compound 36-2, N-hydroxy-1-oxo-2-(5-(trifluoromethyl)benzo[d]oxazol-2-yl)isoindoline-4-carboxamide] | < 0.5 µM
CC1(C)c2cccc(C(=O)NO)c2CN1C(=O)c1ccc(C(F)(F)F)cc1 [Compound 28-1, N-hydroxy-1,1-dimethyl-2-(4-(trifluoromethyl)benzoyl)isoindoline-4-carboxamide] | > 1 µM
CC1(C)c2cccc(C(=O)NO)c2CN1c1nc2nc(C(F)(F)F)ccc2o1 [Compound 26-1, N-hydroxy-1,1-dimethyl-2-(5-(trifluoromethyl)oxazolo[4,5-b]pyridin-2-yl)isoindoline-4-carboxamide] | < 0.5 µM
